The values that follow are results of earlier work, collected in patent US20240166664A1, “TRIHETEROCYCLIC COMPOUND, PREPARATION METHOD THEREFOR, AND APPLICATION THEREOF” (SHANGHAI APEIRON THERAPEUTICS COMPANY LIMITED, priority 2021, published 2024).

The data set relates to tumor. As to conditions: preclinical experimental data; cited from earlier work.

As for `C[C@@H](COCCC(=O)N1CCN(c2ncc(C(F)(F)F)cn2)CC1)Nc1cn[nH]c(=O)c1C(F)(F)F` [RBN-2397], the anti-tumor growth effect result was “potent anti-tumor growth effect increasing in a dose-dependent manner” and the “tumor-specific adaptive immune memory” value was “induces tumor-specific adaptive immune memory”.
